# How the values were obtained:
# Saprolegnia sp. = assay: Effect on Saprolegnia zoospores, spores and hyphae (stated finding)
# Saprolegnia spores = assay: Saprolegnia spore viability in biofilms (CellTiter 96 MTS assay); type: cell-based; details: 4 h
# Description: The effect of treating Saprolegnia-spores with combinations of boric acid and propionic acid was investigated in biofilm preparations since this is one of the most challenging conditions under which effects can be tested.
# Spores were produced to form biofilms. Saprolegnia hyphae were excised from GY agar plates and then incubated in GY broth (15±1° C., 2 days), giving additional hyphal growth. Young hyphae were washed in SAW, transferred to two glass bottles containing one liter of SAW and incubated at 21±1° C. (24 h) to allow zoospore production. Suspensions of zoospores were filtered (tea filter, 0.5 mm pores) resulting in zoospore encystment. Cysts were counted by hemocytometer, the cyst suspensions were adjusted to 1.0±104 spores/L. The suspension was then used in the biofilm formation studies (chambered cover glass system) within 3 h of counting.
# Treatment with BA and/or PA was for 4 hours in stagnate, aerated water after which the water circulation was resumed. Biofilm preparations were tested for viability as described (Ali et al. 2014). In brief, CellTiter 96 aqueous one solution cell proliferation assay (Promega) was used. The test is based on tetrazolium compound [3-(4,5-dimethylthiazol-2-yl)-5-(3-carboxy-methoxyphenyl)-2-(4-sulfophenyl)-2H-tetrazolium, inner salt; MTS] being reduced by viable cells resulting in the formation of formazan products from MTS. The reaction is based on mitochondrial enzymes being active (dehydrogenase) (Lopes et al. 2013), and is an indicator of metabolic rate of the mitochondria.
# Tests were run in 72-well plates with biofilm formed in the wells. BA and/or PA was then added to each tested well (except controls) at increasing concentrations, 1-4 g/L for BA and 31.4 to 125.6 mM/L for PA. Bronopol was used as a positive treatment but at 300 mg/L concentration, and SAW as negative control. Wells with the MTS reagent without spores were used as a background control. The plates were incubated at 15-20° C. Reading was done following 4 h incubation of BA and PA. Formazan product was measured at 490 nm. MTS reduction is proportional to the number and activity of live spores. Spore viability was calculated by: % viability=100×(OD490 value for the sample−mean background OD490)/(mean OD490 for non-treated water control−mean background OD490).
# sea lice = assay: In vivo studies: number of attached sea lice after treatment; details: 2.75 ppm/L PA only, 15 min exposure, 4 days post treatment
# Description: Water salinity: […]; Temperature: 8.5° C.; Oxygen: minimum 8 mg/L in water during treatment (8-10 mg/L measured).
# [1] = test system: eggs and/or fry of Atlantic salmon; details: 50 mg/L treatment for 1 h; cited from earlier work
smiles,measurement,setting,value
"CCC(=O)O [PA, propionic acid]",effect on spores and hyphae,Saprolegnia sp.,direct toxic effect
same,viability (OD value),"Saprolegnia spores; PA 4 ml added (equivalent to 125.6 mM/L), biofilm",lower OD value
same,"viability, statistical evaluation against 4 g/L of BA",Saprolegnia spores; PA (4 ml),significantly lower viability
same,reduction of the number of attached sea lice,sea lice,Reduced the number of attached sea lice by 30%
"O=[N+]([O-])C(Br)(CO)CO [Pyzece, Bronopol]",viability level (OD value),"Saprolegnia spores; 300 mg/L, biofilm, compared with BA and PA combination (approx. 0.3)",same viability level
same,egg toxicity,[1],egg mortality
"OB(O)O [BA, boric acid]",effect on zoospore production and release and on zoosporangia,Saprolegnia sp.,interferes with the production and subsequent release of zoospores
same,viability (OD value),"Saprolegnia spores; BA from 1 g/L up to 4 g/L, biofilm",declining viability
